SMILES strings stand for the structures.

This is an account of results in patent publication US12084453B2, “Bicyclic amines as CDK12 inhibitors” (Incyte Corporation, priority 2021, dated 2024).

This experiment deals with T1, CDK12 complexed with Cyclin K (Homo sapiens, UniProt Q9NYV4).
T1 construct: GST (N); host or cells: baculovirus expression system
Kind of experiment: CDK enzymatic assay (HTRF, LANCE Ultra kinase assay). Type of experiment: biochemical. As to conditions: 60 minutes pre-incubation with compound; 1 mM ATP. The protocol: The following activity of the CDK enzymes in complex with their respective cyclins we assayed: CDK1 complexed with Cyclin B1; CDK2 complexed with Cyclin E1; CDK4 complexed with Cyclin D1; CDK6 complexed with Cyclin D1; CDK6 complexed with Cyclin D3; CDK9 complexed with Cyclin T1; CDK7 complexed with Cyclin H/MAT1; CDK2 complexed with Cyclin A2; CDK5 complexed with p35; CDK12 complexed with Cyclin K; CDK13 complexed with Cyclin K. These in vitro enzyme activity are assayed using homogeneous time-resolved energy transfer (HTRF), which measures phosphorylation of a peptide substrate. The LANCE® Ultra kinase assay (PerkinElmer) uses a ULight™-labeled EIF4E-binding protein 1 (THR37/46) peptide (DYSTTPGGTLFSTTPGTRI (SEQ ID NO: 1)) substrate and a Europium-labeled anti-phospho-4E-BP1 antibody (CDK2, CDK1, CDK4, CDK6, CDK9, CDK12, CDK13) or ULight™-labeled Myelin Basic Protein peptide (VTPRTPPP (SEQ ID NO: 2)) substrate and a Europium-labeled anti-phospho-MBP antibody (CDK7). Each CDK enzyme activity assays utilized human CDK co-expressed as N-terminal GST-tagged protein with its full length cyclin partner using a baculovirus expression system.
Enzyme was pre-incubated with compounds for 30 minutes (CDK1,2,4,6,9) or 60 minutes (CDK7, CDK12, CDK13) prior to addition of ATP and Ulight-peptide (1 mM and 50 nM final, respectively), in assay buffer containing 50 mM HEPES pH 7.5, 1 mM EGTA, 10 mM MgCl2, 2 mM DTT, 0.05 mg/mL BSA, and 0.01% Tween 20. The reaction was then incubated for 60-90 minutes at room temperature. The reactions were stopped by the addition of EDTA and Europium labeled antibody, for a final concentration of 15 mM and 1.0-1.5 nM, respectively. HTRF signals were read after 15-120 minutes. A ratio of fluorescence transferred to the labeled substrate (665 nm) relative to fluorescence of the Europium donor (620 nm) represents the extent of phosphorylation. Ratios for treated wells were normalized to DMSO only (100% activity) and no enzyme (0% activity) controls. Normalized data was analyzed using a three or four parameter dose response curve to determine IC50 for each compound and are shown in Table A. Control reference inhibitors were included on each plate.

T1 sequence (Q9NYV4 whole entry): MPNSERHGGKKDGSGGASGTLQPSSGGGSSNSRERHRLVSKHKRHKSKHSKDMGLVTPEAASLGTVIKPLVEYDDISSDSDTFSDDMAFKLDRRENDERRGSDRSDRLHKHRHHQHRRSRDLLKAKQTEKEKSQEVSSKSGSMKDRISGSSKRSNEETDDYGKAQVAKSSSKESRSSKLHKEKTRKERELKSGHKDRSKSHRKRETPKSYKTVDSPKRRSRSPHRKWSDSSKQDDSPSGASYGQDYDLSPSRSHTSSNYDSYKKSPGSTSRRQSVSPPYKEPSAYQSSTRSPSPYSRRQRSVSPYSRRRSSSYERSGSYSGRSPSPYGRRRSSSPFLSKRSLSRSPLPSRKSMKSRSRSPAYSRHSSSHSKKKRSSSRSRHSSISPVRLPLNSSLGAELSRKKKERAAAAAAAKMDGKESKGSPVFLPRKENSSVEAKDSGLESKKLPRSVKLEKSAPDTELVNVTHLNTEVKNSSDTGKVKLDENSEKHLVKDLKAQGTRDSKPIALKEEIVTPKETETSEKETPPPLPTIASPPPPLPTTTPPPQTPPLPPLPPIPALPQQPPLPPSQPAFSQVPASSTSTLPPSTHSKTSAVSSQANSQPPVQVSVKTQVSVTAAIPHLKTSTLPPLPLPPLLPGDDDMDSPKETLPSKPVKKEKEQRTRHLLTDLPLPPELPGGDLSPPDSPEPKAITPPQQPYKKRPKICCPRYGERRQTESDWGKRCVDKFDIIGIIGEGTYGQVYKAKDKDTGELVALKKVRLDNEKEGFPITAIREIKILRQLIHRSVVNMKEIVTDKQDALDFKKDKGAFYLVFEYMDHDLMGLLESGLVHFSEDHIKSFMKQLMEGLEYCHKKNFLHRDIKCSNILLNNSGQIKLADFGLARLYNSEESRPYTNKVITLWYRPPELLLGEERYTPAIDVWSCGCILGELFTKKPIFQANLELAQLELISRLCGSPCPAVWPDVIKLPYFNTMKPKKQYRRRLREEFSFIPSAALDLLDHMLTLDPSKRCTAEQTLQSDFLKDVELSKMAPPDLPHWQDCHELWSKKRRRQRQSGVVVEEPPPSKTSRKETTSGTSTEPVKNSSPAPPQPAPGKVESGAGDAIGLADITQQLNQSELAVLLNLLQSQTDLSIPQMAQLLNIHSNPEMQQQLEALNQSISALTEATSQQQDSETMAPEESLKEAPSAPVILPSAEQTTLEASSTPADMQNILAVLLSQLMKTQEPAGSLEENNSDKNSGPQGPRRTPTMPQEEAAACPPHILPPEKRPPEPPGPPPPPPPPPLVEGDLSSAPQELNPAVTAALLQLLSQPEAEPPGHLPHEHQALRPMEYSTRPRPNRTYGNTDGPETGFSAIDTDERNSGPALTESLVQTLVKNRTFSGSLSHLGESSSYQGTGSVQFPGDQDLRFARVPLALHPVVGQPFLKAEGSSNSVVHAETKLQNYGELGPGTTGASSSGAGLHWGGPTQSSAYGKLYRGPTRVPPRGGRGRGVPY
T1 sequence (O75909 whole entry partner): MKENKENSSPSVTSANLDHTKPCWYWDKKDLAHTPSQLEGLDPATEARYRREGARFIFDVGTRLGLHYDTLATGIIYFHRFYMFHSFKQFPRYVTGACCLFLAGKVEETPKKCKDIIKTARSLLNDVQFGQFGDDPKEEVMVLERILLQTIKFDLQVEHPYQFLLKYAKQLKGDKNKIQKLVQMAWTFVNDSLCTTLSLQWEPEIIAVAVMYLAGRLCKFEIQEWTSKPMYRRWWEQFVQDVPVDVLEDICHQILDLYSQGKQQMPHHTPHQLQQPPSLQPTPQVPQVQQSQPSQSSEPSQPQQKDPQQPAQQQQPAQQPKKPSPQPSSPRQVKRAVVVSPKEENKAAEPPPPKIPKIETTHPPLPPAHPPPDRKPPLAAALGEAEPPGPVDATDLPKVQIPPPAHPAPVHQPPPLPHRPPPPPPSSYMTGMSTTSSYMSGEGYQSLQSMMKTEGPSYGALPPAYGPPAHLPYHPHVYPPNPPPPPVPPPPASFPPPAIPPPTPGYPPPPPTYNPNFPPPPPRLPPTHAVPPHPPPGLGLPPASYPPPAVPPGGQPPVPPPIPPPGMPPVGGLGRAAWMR

On to `C=CC(=O)Nc1ccc(C(=O)N2CCC[C@@H](Nc3nc4ccc(-c5cn[nH]c5)c(N5CCCC5)n4n3)C2)cc1` [Example 7, (R)-N-(4-(3-((6-(1H-Pyrazol-4-yl)-5-(pyrrolidin-1-yl)-[1,2,4]triazolo[1,5-a]pyridin-2-yl)amino)piperidine-1-carbonyl)phenyl)acrylamide], for which the half-inhibitory concentration (IC50) was below 50 nM.

On to `C=CC(=O)Nc1cnc(N2CCC[C@@H](Nc3nc4ccc(-c5cn[nH]c5)c(C(F)(F)F)n4n3)C2)c(C)c1` [Example 38, (R)-N-(6-(3-((6-(1H-pyrazol-4-yl)-5-(trifluoromethyl)-[1,2,4]triazolo[1,5-a]pyridin-2-yl)amino)piperidin-1-yl)-5-methylpyridin-3-yl)acrylamide], for which the half-maximal inhibitory concentration (IC50) was below 50 nM. `C=CC(=O)Nc1ccc(C(=O)N2CC[C@@H](Nc3nc4ccc(-c5cn[nH]c5)c(C(C)C)n4n3)C2)cc1` [Example 18, (R)-N-(4-(3-((5-Isopropyl-6-(1H-pyrazol-4-yl)-[1,2,4]triazolo[1,5-a]pyridin-2-yl)amino)pyrrolidine-1-carbonyl)phenyl)acrylamide]: the half-maximal inhibitory concentration (IC50) was below 50 nM. As for `C=C(F)C(=O)Nc1ccc(C(=O)N2CC[C@@H](Nc3nc4ccc(-c5cn[nH]c5)c(C(C)C)n4n3)C2)cc1` [Example 26, (R)-2-Fluoro-N-(4-(3-((5-isopropyl-6-(1H-pyrazol-4-yl)-[1,2,4]triazolo[1,5-a]pyridin-2-yl)amino)pyrrolidine-1-carbonyl)phenyl)acrylamide], the IC50 was below 50 nM.
